Assay results from patent US20220356398A1, “Composition and Method for Improving the Water Transport Characteristics of Hydrophobic Soils” (Ethox Chemicals, LLC, priority 2021, published 2022).

How the values were obtained:
[1] = Humic acid removal (detergency)
Text: (§1) Soil treatment polymers are relatively non-polar organic materials with limited water solubility.

[2] = Compatibility with the soil treatment polymers; type: physicochemical
Text: as §1

monophosphate of POE (6) decyl alcohol
humic acid removal properties [1]: good humic acid removal properties
compatibility with the soil treatment polymers [2]: good compatibility
